Experimental data from patent US20160184201A1, “ANTIPERSPIRANT/DEODORANT COMPOSITIONS” (COLGATE-PALMOLIVE COMPANY, priority 2013, published 2016).

Tested on: Staphyloccus haemolyticus
Experiment: Antimicrobial activity: minimum inhibition concentration by two-fold serial dilution in a 96-well plate (optical density, confirmed by agar streak)
Format: cell-based
Conditions: for bacterial growth in the first well of the 96-well plate: 1% L-Lactide solution
Experimental: 1. Formulate a 1% or 10000 ppm and 3% or 30000 ppm solution of the neat L-Lactide active tested by weight and vortex until homogeneous in a 50 mL centrifuge tube. 2. Place solutions in shaking incubator at 200 rpm and 37° C. for 1 hour. 3. Repeat the formulation of the solution and shaking incubation for 4 hour and 24 hour time points. 4. Label 96-well plate to indicate positive and negative controls and the active tested against an odor causing bacteria, Staphyloccus haemolyticus. 5. Using a 96-well plate, pipette 100 uL of Tryptic Soy Broth (TSB) into all of the wells. 6. In the first well, add 100 uL of the active solution or desired solvent for positive and negative controls to achieve a total of 200 uL in the first column of wells. 7. Set the multi-channel pipette to 100 uL and begin mixing the contents in the first column of wells and transfer 100 uL of the mixture into each successive well creating two-fold serial dilutions. 8. Repeat until the 12th column is reached making sure to dispose the 100 uL from the last well leaving 100 uL in all of the wells. 9. In the negative control wells add 100 uL of Phosphate Buffered Saline (PBS). Add 100 uL of bacteria (optical density equals to 0.1) to all other wells. 10. Incubate 96-well plate overnight at 37° C. or at room temperature for 48 hours. 11. Minimum inhibition concentration of the sample is determined by measuring the optical density of the 96 plate.

For `CC1OC(=O)C(C)OC1=O` [L-Lactide, 3,6-dimethyl-1,4-dioxane-2,5-dione], the “bacterial growth in the first well of the 96-well plate” value (1 hour of shaking incubation (200 rpm, 37° C.), first well, 4-fold dilution of the sample) was “some bacterial growth”, the “bacterial growth in the first well of the 96-well plate” value (4 hours of incubation, same first well, 4-fold dilution) was “complete bacteria kill” and the “bacterial growth in wells 1 and 2 of the 96-well plate” value (3% L-Lactide solution, 1 hour of shaking incubation, dilution factor 4 and 8 fold) was “no bacterial growth”. The “bacterial growth in the third well of the 96-well plate” value (3% L-Lactide solution, 24 hours of shaking incubation, third well, dilution 16 fold) was “bacteria growth is prevented”.
